Like-named read-outs stand apart in the source and are kept apart here.
Experiments:
[1] = tested on: FADD−/− Jurkat cells; experiment: TNF-induced programmed cell necrosis inhibition, Cell Titer-Glo viability; type: cell-based
Text: (§1) The adopted biological assay protocol was: the programmed necroptosis effect of compounds on TNF-induced in FADD (Fas-Associated Death Domain) deficient Jurkat cells and L929 cells.
(§2) In order to verify the inhibitory effect of the compounds of the present invention on programmed cell necrosis at the cellular level, cell types closely related to the RIP1 pathway, namely FADD deficient Jurkat cells (human peripheral blood leukemia T cell line) and L929 cells, were selected. Two different stimulation methods were used: tumor necrosis factor (TNFα) used alone, or TNFα used in combination with mitochondria-derived cysteine aspartate activator (SMAC). Cells viability was calculated by detecting chemiluminescence values, and the biological activity of the compound for inhibiting programmed cell necrosis can be obtained.
(§3) Methods: FADD deficient Jurkat cells: FADD deficient Jurkat cells (human peripheral blood leukemia T cell line) were cultured in vitro. After growing to the logarithmic growth phase, the cells were collected, centrifuged at 1000 rpm for 5 min, the supernatant was discarded, and the cell concentration was adjusted to 2.5×10^5/mL. Cells were seeded into 384-well plates, 40 μl per well. 5 μL of Smac (50 nM) diluted in cell culture medium and 5 μL of each compound were added to the corresponding wells. After pretreatment at 37° C. for 1 h, 5 μL of TNFα (50 ng/mL) diluted in cell culture medium was added to each well of the stimulation group, and 5 μL of the culture medium was added to the control group. The plate was cultured in a cell incubator (37° C., 5% CO2) for 14 h, and 15 μl of Cell Titer-Glo solution was added to each well, then incubated for 30 min at room temperature, and intracellular ATP level was measured by detecting luminescence. The unstimulated DMSO control wells were taken as 100% cell viability. L929 cells: The L929 cells (mouse fibroblasts) were cultured in vitro, digested and diluted to 6.25×10^4/ml, and the cells were seeded into 384-well plates, 40 μl per well. The plate was placed in a cell incubator (37° C., 5% CO2) for 12 hours. 5 μL of Smac (500 nM) diluted in cell culture medium and 5 μL of each compound were added to the corresponding wells. After pretreatment at 37° C. for 1 h, 5 μL of TNFα (500 ng/mL) diluted in cell culture medium was added to each well of the stimulation group, and 5 μL of the culture medium was added to the control group. After the plate was cultured for 14 h in a cell incubator (37° C., 5% CO2), 15 μl of Cell Titer-Glo solution was added to each well. The plate was incubated at room temperature for 30 min, and intracellular ATP level was measured by detecting luminescence. The unstimulated DMSO control wells were taken as 100% cell viability. EC50 values of the compounds were calculated using Prism Graphpad statistical software.
FADD deficient Jurkat cells: FADD deficient Jurkat cells (human peripheral blood leukemia T cell line) were cultured in vitro. After growing to the logarithmic growth phase, the cells were collected, centrifuged at 1000 rpm for 5 min, the supernatant was discarded, and the cell concentration was adjusted to 2.5×10^5/mL. Cells were seeded into 384-well plates, 40 μl per well. 5 μL of Smac (50 nM) diluted in cell culture medium and 5 μL of each compound were added to the corresponding wells. After pretreatment at 37° C. for 1 h, 5 μL of TNFα (50 ng/mL) diluted in cell culture medium was added to each well of the stimulation group, and 5 μL of the culture medium was added to the control group. After the plate was cultured in a cell incubator (37° C., 5% CO2) for 14 h, 15 μl of Cell Titer-Glo solution was added to each well. The mixture was incubated for 30 min at room temperature, and intracellular ATP level was measured by detecting luminescence. The unstimulated DMSO control wells were taken as 100% cell viability.

[2] = tested on: L929 cells; experiment: as above; type: cell-based, mouse; settings: read-out: EC50 inhibitory activity on programmed cell necrosis
Text: as §1, §2, §3
L929 cells: The L929 cells (mouse fibroblasts) were cultured in vitro, digested and diluted to 6.25×10^4/ml, and the cells were seeded into 384-well plates, 40 μl per well. The plate was placed in a cell incubator (37° C., 5% CO2) for 12 hours. 5 μL of Smac (500 nM) diluted in cell culture medium and 5 μL of each compound were added to the corresponding wells. After pretreatment at 37° C. for 1 h, 5 μL of TNFα (500 ng/mL) diluted in cell culture medium was added to each well of the stimulation group, and 5 μL of the culture medium was added to the control group. After the plate was cultured for 14 h in a cell incubator (37° C., 5% CO2), and 15 μl of Cell Titer-Glo solution was added to each well, then incubated at room temperature for 30 min, and intracellular ATP level was measured by detecting luminescence. The unstimulated DMSO control wells were taken as 100% cell viability.

[3] = Homo sapiens, Jurkat, 14 h, TNFa + SM164, read-out: EC50 inhibitory activity on programmed cell necrosis
[4] = Homo sapiens, Jurkat, TNFa, read-out: EC50 inhibitory activity on programmed cell necrosis
[5] = Mus musculus, L929, 14 h, L929 cells (mouse), TNFa + SM164
[6] = Mus musculus, L929, L929 cells (mouse), TNFa
[7] = FADD−/− Jurkat cells (human), TNFa + SM164, read-out: EC50 inhibitory activity on programmed cell necrosis
[8] = FADD−/− Jurkat cells (human), TNFa, read-out: EC50 inhibitory activity on programmed cell necrosis
[9] = Mus musculus, L929, L929 cells (mouse), TNFa + SM164

Compound | EC50 [1, 3] | EC50 [1, 4] | EC50 [2, 5] | EC50 [2, 6] | EC50 [1, 7] | EC50 [1, 8] | EC50 ([2]; L929 cells (mouse), TNFa) | EC50 ([2]; L929 cells (mouse), TNFa + SM164) | EC50 [2, 9]
CN(C)C(=O)c1noc([C@@H]2CCCN2C(=O)C(C)(C)Oc2ccc(Cl)cc2)n1 [QY-3-65] | > 10000 nM | > 10000 nM | > 10000 nM | > 10000 nM | – | – | – | – | –
Cc1noc([C@@H]2CCCN2C(=O)C(C)(C)Oc2ccc(Cl)cc2Cl)n1 [QY-3-81] | 1960 nM | 326 nM | 2720 nM | 704 nM | – | – | – | – | –
Cc1noc([C@@H]2CCCN2C(=O)C(C)(C)N(C)c2ccc(Cl)cc2)n1 [QY-3-86] | 8680 nM | 13500 nM | > 10000 nM | > 10000 nM | – | – | – | – | –
Cc1noc([C@@H]2CCCN2C(=O)C(C)(C)Oc2ccc(Cl)cc2C)n1 [QY-3-94] | – | – | 5220 nM | – | 2960 nM | 516 nM | 1410 nM | – | –
COc1cc(Cl)ccc1OC(C)(C)C(=O)N1CCC[C@H]1c1nc(C)no1 [QY-3-95] | 1140 nM | 102 nM | 1000 nM | 135 nM | – | – | – | – | –
Cc1noc([C@@H]2CCCN2C(=O)C(C)(C)Oc2ccc(Cl)cc2C)n1 [QY-3-96] | – | – | – | – | 9220 nM | 2790 nM | > 10000 nM | > 10000 nM | –
CC(C)(Oc1ccc(Cl)cc1F)C(=O)N1CCCC1c1ccccc1 (stereo not drawn) [QY-3-99, 2-(4-Chloro-2-fluorophenoxy)-2-methyl-1-(2-phenylpyrrolidin-1-yl)propan-1-one] | 444 nM | 61 nM | – | 62 nM | – | – | – | – | 244 nM
Cc1noc([C@@H]2CCCN2C(=O)C(C)(C)Oc2cc(Cl)c(Cl)cc2Cl)n1 [QY-4-1] | > 10000 nM | 10300 nM | > 10000 nM | 12700 nM | – | – | – | – | –
Cc1noc([C@@H]2CCCN2C(=O)C(C)(C)Oc2c(F)cc(Cl)cc2F)n1 [QY-4-2] | 7730 nM | 1060 nM | 16900 nM | 3950 nM | – | – | – | – | –
CC(C)(Oc1ccc(Cl)cc1)C(=O)N1CCCC1c1ccc(Cl)cc1 (stereo not drawn) [QY-4-6] | 776 nM | 116 nM | 292 nM | 65 nM | – | – | – | – | –
CC(C)(Oc1ccc(Cl)cc1)C(=O)N1CCCC1c1ccc(F)cc1 (stereo not drawn) [QY-4-7] | 825 nM | 126 nM | 652 nM | 111 nM | – | – | – | – | –
Cn1nnnc1[C@@H]1CCCN1C(=O)C(C)(C)Oc1ccc(Cl)cc1 [QY-4-11] | 1710 nM | 61 nM | > 10000 nM | > 10000 nM | – | – | – | – | –
Cn1nnc([C@@H]2CCCN2C(=O)C(C)(C)Oc2ccc(Cl)cc2)n1 [QY-4-12] | 5890 nM | 607 nM | 9530 nM | 1610 nM | – | – | – | – | –
Cc1noc([C@@H]2CCCN2C(=O)C(C)(C)Oc2c(F)cc(F)cc2F)n1 [QY-4-14] | 40600 nM | 18000 nM | > 10000 nM | 5890 nM | – | – | – | – | –
Cc1ccccc1C1CCCN1C(=O)C(C)(C)Oc1ccc(Cl)cc1 (stereo not drawn) [QY-4-27] | > 10000 nM | 2900 nM | > 10000 nM | 3670 nM | – | – | – | – | –
CC(C)(Oc1ccc(Cl)cc1)C(=O)N1CCCC1c1ccccc1Cl (stereo not drawn) [QY-4-32] | 2680 nM | 712 nM | 1650 nM | 520 nM | – | – | – | – | –
CC(C)(Oc1ccc(Cl)cc1)C(=O)N1CCCC1c1cccc(Cl)c1 (stereo not drawn) [QY-4-35] | > 10000 nM | 4090 nM | > 10000 nM | 3700 nM | – | – | – | – | –

Compound | EC50 [1, 3] | EC50 [1, 4] | EC50 [2, 5] | EC50 [2, 6] | EC50 [1, 7] | EC50 [1, 8] | EC50 ([2]; L929 cells (mouse), TNFa) | EC50 ([2]; L929 cells (mouse), TNFa + SM164) | EC50 [2, 9]
CC(C)(Oc1ccc(Cl)cc1)C(=O)N1CCCC1c1cccc(F)c1 (stereo not drawn) [QY-4-39] | 1190 nM | 274 nM | 675 nM | 189 nM | – | – | – | – | –
Cc1ccc(C2CCCN2C(=O)C(C)(C)Oc2ccc(Cl)cc2C#N)cc1 (stereo not drawn) [QY-4-66] | 2190 nM | 544 nM | 1280 nM | 392 nM | – | – | – | – | –
Cc1ccc(C2CCCN2C(=O)C(C)(C)Oc2ccc(Cl)cc2C(F)(F)F)cc1 (stereo not drawn) [QY-4-67] | 5160 nM | 1330 nM | 3930 nM | 1380 nM | – | – | – | – | –
CC(C)(Oc1ccc(Cl)cc1F)C(=O)N1CCCC1c1cccc(C#N)c1 (stereo not drawn) [QY-4-69] | 9380 nM | 1540 nM | 3630 nM | 650 nM | – | – | – | – | –
COc1cccc(C2CCCN2C(=O)C(C)(C)Oc2ccc(Cl)cc2F)c1 (stereo not drawn) [QY-4-70] | > 10000 nM | > 10000 nM | > 10000 nM | 1780 nM | – | – | – | – | –
Cc1ccc(C2CCCN2C(=O)C(C)(C)Oc2ccc(Cl)cc2F)cc1 (stereo not drawn) [QY-4-75] | 704 nM | 83 nM | 188 nM | 43 nM | – | – | – | – | –
CC(C)(Oc1ccc(Cl)cc1F)C(=O)N1CCCC1c1ccccc1F (stereo not drawn) [QY-4-78] | 1100 nM | 205 nM | 724 nM | 156 nM | – | – | – | – | –
COc1ccc(C2CCCN2C(=O)C(C)(C)Oc2ccc(Cl)cc2F)cc1 (stereo not drawn) [QY-4-87] | > 10000 nM | 2380 nM | > 10000 nM | 2400 nM | – | – | – | – | –
CC(C)(Oc1ccc(Cl)cc1F)C(=O)N1CCCC1c1ccc(C#N)cc1 (stereo not drawn) [QY-4-88] | 4000 nM | 746 nM | 3100 nM | 1160 nM | – | – | – | – | –
CCc1ccc(C2CCCN2C(=O)C(C)(C)Oc2ccc(Cl)cc2)cc1 (stereo not drawn) [QY-4-96] | 6930 nM | 1460 nM | 8130 nM | 2100 nM | – | – | – | – | –
CCc1ccc(C2CCCN2C(=O)C(C)(C)Oc2ccc(Cl)cc2F)cc1 (stereo not drawn) [QY-4-99] | 9200 nM | 1450 nM | 9120 nM | 2510 nM | – | – | – | – | –
CC(C)c1ccc(C2CCCN2C(=O)C(C)(C)Oc2ccc(Cl)cc2F)cc1 (stereo not drawn) [QY-5-1] | > 10000 nM | > 10000 nM | > 10000 nM | > 10000 nM | – | – | – | – | –
CN(C)c1ccc(C2CCCN2C(=O)C(C)(C)Oc2ccc(Cl)cc2F)cc1 (stereo not drawn) [QY-5-4] | > 10000 nM | > 10000 nM | > 10000 nM | > 10000 nM | – | – | – | – | –
Cc1ccc([C@@H]2CCCN2C(=O)C(C)(C)Oc2ccc(Cl)cc2F)cc1 [QY-5-22, (S)-2-(4-Chloro-2-fluorophenoxy)-2-methyl-1-(2-(p-tolyl)pyrrolidin-1-yl)propan-1-one] | 683 nM | 98 nM | – | 62 nM | – | – | – | – | 262 nM
CNC(=O)c1ccc(C2CCCN2C(=O)C(C)(C)Oc2ccc(Cl)cc2F)cc1 (stereo not drawn) [QY-5-79] | 1060 nM | 9230 nM | > 10000 nM | > 10000 nM | – | – | – | – | –
CC(C)(Oc1ccc(Cl)cc1F)C(=O)N1CCCC1c1ccc(C(F)(F)F)cc1 (stereo not drawn) [QY-5-83] | 7720 nM | 1290 nM | > 10000 nM | 8750 nM | – | – | – | – | –

From US12662473B2, “Inhibitors for programmed cell necrosis and preparation method therefor and use thereof” (SHANGHAI INSTITUTE OF ORGANIC CHEMISTRY, CHINESE ACADEMY OF …, priority 2019, dated 2026)
